SMILES strings stand for the structures. pIC50: −log10 of the molar value.

15 molecules from patent US11673890B2, “N1-pyrazolospiroketone acetyl-CoA carboxylase inhibitors” (Pfizer Inc., priority 2010, dated 2023) can be followed below.

The target of assay [1] is T1, recombinant human ACC1 (rhACC1) (Homo sapiens, UniProt Q13085, DEL44-44).
T1 construct: infected with recombinant baculovirus containing full length human ACC1 cDNA; made in house; host or cells: SF9 insect cells (baculovirus)
As to the kind of experiment: recombinant hACC1 Transcreener assay (ADP detection FP). Conditions: recombinant hACC1 Transcreener assay, 50 μM ATP, minimum of n=3; read-out: hACC1. Type of assay: biochemical. The protocol:
For example direct inhibition of ACC activity, for the compound of Formula (1) was determined using preparations of recombinant human ACC1 (rhACC1) and recombinant human ACC2 (rhACC2).
[1] Preparation of rhACC1. Two liters of SF9 cells, infected with recombinant baculovirus containing full length human ACC1 cDNA, were suspended in ice-cold lysis buffer (25 mM Tris, pH 7.5; 150 mM NaCl; 10% glycerol; 5 mM imidazole (EMD Bioscience; Gibbstown, N.J.); 2 mM TCEP (BioVectra; Charlottetown, Canada); Benzonase nuclease (10000 U/100 g cell paste; Novagen; Madison, Wis.); EDTA-free protease inhibitor cocktail (1 tab/50 mL; Roche Diagnostics; Mannheim, Germany). Cells were lysed by 3 cycles of freeze-thaw and centrifuged at 40,000×g for 40 minutes (4° C.). Supernatant was directly loaded onto a HisTrap FF crude column (GE Healthcare; Piscataway, N.J.) and eluted with an imidazole gradient up to 0.5 M over 20 column volumes (CV). ACC1-containing fractions were pooled and diluted 1:5 with 25 mM Tris, pH 7.5, 2 mM TCEP, 10% glycerol and direct loaded onto a CaptoQ (GE Healthcare) column and eluted with an NaCl gradient up to 1 M over 20 CV's. Phosphate groups were removed from purified ACC1 by incubation with lambda phosphatase (100 U/10 μM target protein; New England Biolabs; Beverly, Mass.) for 14 hours at 4° C.; okadaic acid was added (1 μM final concentration; Roche Diagnostics) to inhibit the phosphatase. Purified ACC1 was exchanged into 25 mM Tris, pH 7.5, 2 mM TCEP, 10% glycerol, 0.5 M NaCl by 6 hour dialysis at 4° C. Aliquots were prepared and frozen at −80° C.
[2] […] The final conditions for the assay were 50 mM HEPES, pH 7.2, 10 mM MgCl2, 7.5 mM tripotassium citrate, 2 mM DTT, 0.1 mg/mL BSA, 30 μM acetyl-CoA, 50 μM ATP, and 10 mM KHCO3. Typically, a 10 μl reaction was run for 120 min at 25° C., and 10 μl of Transcreener stop and detect buffer was added and the combination incubated at room temp for an additional 1 hour.
All of the examples in both assays were run with a minimum of n=3.

In assay [2] the target is T2, recombinant human ACC2 (rhACC2) (Homo sapiens, UniProt O00763, V2141I).
T2 construct: a full length Cytomax clone of ACC2 was purchased from Cambridge Bioscience Limited; made in house; host or cells: CHO cells (tetracycline-inducible, pcDNA5 FRT TO-TOPO)
T2 sequence (O00763 whole entry V2141I): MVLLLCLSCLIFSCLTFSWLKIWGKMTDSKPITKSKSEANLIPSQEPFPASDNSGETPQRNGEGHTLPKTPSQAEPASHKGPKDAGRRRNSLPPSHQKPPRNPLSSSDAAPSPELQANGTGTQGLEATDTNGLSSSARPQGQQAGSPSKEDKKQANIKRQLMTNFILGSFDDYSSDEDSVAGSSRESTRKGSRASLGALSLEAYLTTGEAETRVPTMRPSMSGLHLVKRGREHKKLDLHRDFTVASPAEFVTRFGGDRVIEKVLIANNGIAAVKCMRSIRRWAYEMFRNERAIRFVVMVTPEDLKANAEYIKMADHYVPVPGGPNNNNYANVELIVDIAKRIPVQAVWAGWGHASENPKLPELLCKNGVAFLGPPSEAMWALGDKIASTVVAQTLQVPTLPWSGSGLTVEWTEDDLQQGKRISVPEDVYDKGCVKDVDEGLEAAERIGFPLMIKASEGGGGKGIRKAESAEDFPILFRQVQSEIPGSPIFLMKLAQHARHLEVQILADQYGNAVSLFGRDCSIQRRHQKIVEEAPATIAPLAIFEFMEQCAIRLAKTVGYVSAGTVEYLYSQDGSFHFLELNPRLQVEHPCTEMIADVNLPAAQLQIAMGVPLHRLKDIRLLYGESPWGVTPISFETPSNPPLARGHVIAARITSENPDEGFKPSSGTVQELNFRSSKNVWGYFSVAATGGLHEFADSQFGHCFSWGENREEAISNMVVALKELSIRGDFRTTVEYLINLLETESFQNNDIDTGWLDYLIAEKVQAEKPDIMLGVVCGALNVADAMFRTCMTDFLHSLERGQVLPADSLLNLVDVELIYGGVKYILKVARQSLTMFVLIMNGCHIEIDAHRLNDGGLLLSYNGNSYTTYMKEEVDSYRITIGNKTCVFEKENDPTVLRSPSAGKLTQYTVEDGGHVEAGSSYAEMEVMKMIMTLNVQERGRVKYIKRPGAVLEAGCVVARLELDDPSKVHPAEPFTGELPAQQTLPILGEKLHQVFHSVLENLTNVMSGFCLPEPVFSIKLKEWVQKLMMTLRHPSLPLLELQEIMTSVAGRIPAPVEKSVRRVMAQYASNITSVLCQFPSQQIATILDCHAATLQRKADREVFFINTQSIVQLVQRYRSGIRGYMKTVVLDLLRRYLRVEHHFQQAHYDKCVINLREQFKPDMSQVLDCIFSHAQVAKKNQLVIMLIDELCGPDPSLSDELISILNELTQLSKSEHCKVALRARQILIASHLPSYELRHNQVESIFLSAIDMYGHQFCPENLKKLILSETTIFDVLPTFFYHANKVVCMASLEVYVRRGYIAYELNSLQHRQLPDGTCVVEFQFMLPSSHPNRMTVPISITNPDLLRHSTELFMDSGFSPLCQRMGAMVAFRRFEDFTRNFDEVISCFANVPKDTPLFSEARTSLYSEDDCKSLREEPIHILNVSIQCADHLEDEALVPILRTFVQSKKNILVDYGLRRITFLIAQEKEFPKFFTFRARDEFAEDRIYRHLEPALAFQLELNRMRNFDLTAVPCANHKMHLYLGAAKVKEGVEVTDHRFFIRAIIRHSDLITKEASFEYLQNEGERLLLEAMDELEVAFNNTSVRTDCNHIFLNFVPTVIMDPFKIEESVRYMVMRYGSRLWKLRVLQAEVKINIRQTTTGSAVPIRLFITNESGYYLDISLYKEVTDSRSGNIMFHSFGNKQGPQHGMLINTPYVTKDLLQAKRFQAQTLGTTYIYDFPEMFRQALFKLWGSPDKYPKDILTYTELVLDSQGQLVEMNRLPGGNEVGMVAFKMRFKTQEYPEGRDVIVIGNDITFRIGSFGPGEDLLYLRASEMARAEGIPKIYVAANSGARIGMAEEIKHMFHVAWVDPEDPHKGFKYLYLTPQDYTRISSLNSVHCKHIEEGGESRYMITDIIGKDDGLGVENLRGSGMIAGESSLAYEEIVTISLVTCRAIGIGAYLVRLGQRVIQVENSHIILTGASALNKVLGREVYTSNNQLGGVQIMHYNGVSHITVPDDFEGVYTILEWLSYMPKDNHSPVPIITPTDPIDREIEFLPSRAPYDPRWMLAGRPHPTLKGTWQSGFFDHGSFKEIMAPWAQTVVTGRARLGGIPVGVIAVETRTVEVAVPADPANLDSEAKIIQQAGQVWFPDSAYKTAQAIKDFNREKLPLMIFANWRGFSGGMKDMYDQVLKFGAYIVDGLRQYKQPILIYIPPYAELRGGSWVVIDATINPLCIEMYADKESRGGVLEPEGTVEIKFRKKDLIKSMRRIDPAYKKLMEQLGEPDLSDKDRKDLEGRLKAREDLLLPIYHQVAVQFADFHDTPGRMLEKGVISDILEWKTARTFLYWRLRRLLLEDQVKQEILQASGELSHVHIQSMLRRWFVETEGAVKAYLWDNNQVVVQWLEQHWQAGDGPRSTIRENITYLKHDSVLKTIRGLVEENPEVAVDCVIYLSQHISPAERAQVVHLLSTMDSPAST
Description: recombinant hACC2 Transcreener assay (ADP detection FP). The format is biochemical. As to conditions: 50 μM ATP, minimum of n=3. The procedure: For example direct inhibition of ACC activity, for the compound of Formula (1) was determined using preparations of recombinant human ACC1 (rhACC1) and recombinant human ACC2 (rhACC2). Representative sequences of the recombinant human ACC1 and ACC2 that can be used in the assay are provided in FIG. 1 (SEQ ID NO. 1) and FIG. 2 (SEQ. ID NO. 2), respectively.
[3] Preparation of rhACC2. Human ACC2 inhibition was measured using purified recombinant human ACC2 (hrACC2). Briefly, a full length Cytomax clone of ACC2 was purchased from Cambridge Bioscience Limited and was sequenced and subcloned into PCDNA5 FRT TO-TOPO (Invitrogen, Carlsbad, Calif.). The ACC2 was expressed in CHO cells by tetracycline induction and harvested in 5 liters of DMEM/F12 with glutamine, biotin, hygromycin and blasticidin with 1 μg/mL tetracycline (Invitrogen, Carlsbad, Calif.). The conditioned medium containing ACC2 was then applied to a Softlink Soft Release Avidin column (Promega, Madison, Wis.) and eluted with 5 mM biotin. 4 mgs of ACC2 were eluted at a concentration of 0.05 mg/mL (determined by A280) with an estimated purity of 95% ([…]). The purified ACC2 was dialyzed in 50 mM Tris, 200 mM NaCl, 4 mM DTT, 2 mM EDTA, and 5% glycerol. The pooled protein was frozen and stored at −80° C., with no loss of activity upon thawing. For measurement of ACC2 activity and assessment of ACC2 inhibition, test compounds were dissolved in DMSO and added to the rhACC2 enzyme as a 5× stock with a final DMSO concentration of 1%.
[4] Measurement of human ACC2 inhibition. hACC2 was assayed in a Costar #3676 (Costar, Cambridge, Mass.) 384-well plate using the Transcreener ADP detection FP assay kit (Bellbrook Labs, Madison, Wis.) using the manufacturer's recommended conditions for a 50 uM ATP reaction. The final conditions for the assay were 50 mM HEPES, pH 7.2, 5 mM MgCl2, 5 mM tripotassium citrate, 2 mM DTT, 0.1 mg/mL BSA, 30 μM acetyl-CoA, 50 μM ATP, and 8 mM KHCO3. Typically, a 10 μl reaction was run for 50 min at 25° C., and 10 μl of Transcreener stop and detect buffer was added and the combination incubated at room temp for an additional 1 hour. The data was acquired on an Envision Fluorescence reader (Perkinelmer) using a 620 excitation Cy5 FP general dual mirror, 620 excitation Cy5 FP filter, 688 emission (S) and a 688 (P) emission filter.
The results using the recombinant hACC1 and recombinant hACC2 Transcreener assays described above are summarized in the table below for the Compounds of Formula (I) exemplified in the Examples above. All of the examples in both assays were run with a minimum of n=3.

As for `CC(C)(C)n1ncc2c1C(=O)CC1(CCN(C(=O)c3cc4c(-c5cccc(C(=O)O)c5)cccc4[nH]3)CC1)C2` [Example 17, 3-{2-[(1-tert-butyl-7-oxo-1,4,6,7-tetrahydro-1′H-spiro[indazole-5,4′-piperidin]-1′-yl)carbonyl]-1H-indol-4-yl}benzoic acid], the pIC50 is 7.81 in assay [1] and 7.67 in assay [2].
As to `CC(C)(C)n1ncc2c1C(=O)CC1(CCN(C(=O)c3cc4c(-c5ccc(C(=O)O)cc5)cccc4[nH]3)CC1)C2` [Example 18, 4-{2-[(1-tert-butyl-7-oxo-1,4,6,7-tetrahydro-1′H-spiro[indazole-5,4′-piperidin]-1′-yl)carbonyl]-1H-indol-4-yl}benzoic acid], the pIC50 in assay [1] was 8.35; in assay [2], 7.84.
As for `CCNc1nc(-c2cccc(C(=O)O)c2)ccc1C(=O)N1CCC2(CC1)CC(=O)c1c(cnn1C(C)(C)C)C2` [Example 19, 3-{5-[(1-tert-butyl-7-oxo-1,4,6,7-tetrahydro-1′H-spiro[indazole-5,4′-piperidin]-1′-yl)carbonyl]-6-(ethylamino)pyridin-2-yl}benzoic acid], the pIC50 in assay [1] was 6.08; in assay [2], 6.31.
In the case of `CC(C)(C)n1ncc2c1C(=O)CC1(CCN(C(=O)c3cc(C(=O)O)cc(-c4ncco4)c3)CC1)C2` [Example 21, 3-[(1-tert-butyl-7-oxo-1,4,6,7-tetrahydro-1′H-spiro[indazole-5,4′-piperidin]-1′-yl)carbonyl]-5-(1,3-oxazol-2-yl)benzoic acid], the pIC50 in assay [1] is 6.20; in assay [2], 6.29.
Turning to `CC(C)n1ncc2c1C(=O)CC1(CCN(C(=O)c3cc(C(=O)O)cc(-c4ncco4)c3)CC1)C2` [Example 22, 3-[(1-isopropyl-7-oxo-1,4,6,7-tetrahydro-1′H-spiro[indazole-5,4′-piperidin]-1′-yl)carbonyl]-5-(1,3-oxazol-2-yl)benzoic acid], the pIC50 in assay [1] is 6.00; in assay [2] it was 6.16.
For `CC(C)Nc1nc(-c2cccc(C(=O)O)c2)ccc1C(=O)N1CCC2(CC1)CC(=O)c1c(cnn1C(C)C)C2` [Example 23, 3-{6-(isopropylamino)-5-[(1-isopropyl-7-oxo-1,4,6,7-tetrahydro-1′H-spiro[indazole-5,4′-piperidin]-1′-yl)carbonyl]pyridin-2-yl}benzoic acid], the pIC50 in assay [1] was 5.86; in assay [2], 6.38.
As for `CC(C)Nc1nc(-c2ccc(C(=O)O)cc2)ccc1C(=O)N1CCC2(CC1)CC(=O)c1c(cnn1C(C)(C)C)C2` [Example 24, 4-{5-[(1-tert-butyl-7-oxo-1,4,6,7-tetrahydro-1′H-spiro[indazole-5,4′-piperidin]-1′-yl)carbonyl]-6-(isopropylamino)pyridin-2-yl}benzoic acid], the pIC50 was 5.50 in assay [1] and 6.25 in assay [2].
`CC(C)Nc1nc(-c2ccc(C(=O)O)cc2)ccc1C(=O)N1CCC2(CC1)CC(=O)c1c(cnn1C(C)C)C2` [Example 25, 4-{6-(isopropylamino)-5-[(1-isopropyl-7-oxo-1,4,6,7-tetrahydro-1′H-spiro[indazole-5,4′-piperidin]-1′-yl)carbonyl]pyridin-2-yl}benzoic acid]: the values for the pIC50 in assay [1] and in assay [2] were 6.22 and 6.69, respectively.
The matching figures for `CC(C)n1ncc2c1C(=O)CC1(CCN(C(=O)c3cc(-c4ccc(C(=O)O)cc4)c4cn[nH]c4c3)CC1)C2` [Example 26, 4-{6-[(1-isopropyl-7-oxo-1,4,6,7-tetrahydro-1′H-spiro[indazole-5,4′-piperidin]-1′-yl)carbonyl]-1H-indazol-4-yl}benzoic acid]: 7.69 and 8.13.
As to `CC(C)n1ncc2c1C(=O)CC1(CCN(C(=O)c3cc(-c4ccc(C(=O)O)cc4)[nH]c(=O)c3)CC1)C2` [Example 27, 4-{4-[(1-isopropyl-7-oxo-1,4,6,7-tetrahydro-1′H-spiro[indazole-5,4′-piperidin]-1′-yl)carbonyl]-6-oxo-1,6-dihydropyridin-2-yl}benzoic acid], the pIC50 was 5.54 in assay [1] and 5.94 in assay [2].
Take `CC(C)n1ncc2c1C(=O)CC1(CCN(C(=O)c3cc4c(-c5cccc(C(=O)O)c5)ccnc4[nH]3)CC1)C2` [Example 28, 3-{2-[(1-isopropyl-7-oxo-1,4,6,7-tetrahydro-1′H-spiro[indazole-5,4′-piperidin]-1′-yl)carbonyl]-1H-pyrrolo[2,3-b]pyridin-4-yl}benzoic acid]: the pIC50 in assay [1] was 8.17; in assay [2], 8.27.
Taken in the same sequence, the figures for `CC(C)n1ncc2c1C(=O)CC1(CCN(C(=O)c3cc4c(-c5ccc(C(=O)O)cc5)ccnc4[nH]3)CC1)C2` [Example 29, 4-{2-[(1-isopropyl-7-oxo-1,4,6,7-tetrahydro-1′H-spiro[indazole-5,4′-piperidin]-1′-yl)carbonyl]-1H-pyrrolo[2,3-b]pyridin-4-yl}benzoic acid] were 7.86 and 8.21.
Take `CC(C)n1ncc2c1C(=O)CC1(CCN(C(=O)c3cc4c(-c5ccc(C(=O)O)cc5)nccc4[nH]3)CC1)C2` [Example 30, 4-{2-[(1-isopropyl-7-oxo-1,4,6,7-tetrahydro-1′H-spiro[indazole-5,4′-piperidin]-1′-yl)carbonyl]-1H-pyrrolo[3,2-c]pyridin-4-yl}benzoic acid]: the pIC50 in assay [1] is 7.79; in assay [2], 7.73.
The matching figures for `COc1ccc(-c2cccc3[nH]c(C(=O)N4CCC5(CC4)CC(=O)c4c(cnn4C(C)C)C5)cc23)cc1CC(=O)O` [Example 31, (5-{2-[(1-isopropyl-7-oxo-1,4,6,7-tetrahydro-1′H-spiro[indazole-5,4′-piperidin]-1′-yl)carbonyl]-1H-indol-4-yl}-2-methoxyphenyl)acetic acid]: 7.64 and 7.26.
For the molecule `CC(C)n1ncc2c1C(=O)CC1(CCN(C(=O)c3cc(-c4cccc(C(=O)O)c4)nc(N(C)C)c3)CC1)C2` [Example 32, 3-{6-(dimethylamino)-4-[(1-isopropyl-7-oxo-1,4,6,7-tetrahydro-1′H-spiro[indazole-5,4′-piperidin]-1′-yl)carbonyl]pyridin-2-yl}benzoic acid], the pIC50 in assay [1] is 7.50; in assay [2] it was 7.90.
